In experiment [1] the target is Chymotrypsinogen A (Bos taurus) (UniProt P00766). As to the kind of experiment: Compound was evaluated for inhibitory activity against alpha- chymotrypsin.
For experiment [2], the target named is T1, Chymotrypsin-like elastase family member 2A (Sus scrofa) (UniProt P08419).
T1 sequence (whole entry): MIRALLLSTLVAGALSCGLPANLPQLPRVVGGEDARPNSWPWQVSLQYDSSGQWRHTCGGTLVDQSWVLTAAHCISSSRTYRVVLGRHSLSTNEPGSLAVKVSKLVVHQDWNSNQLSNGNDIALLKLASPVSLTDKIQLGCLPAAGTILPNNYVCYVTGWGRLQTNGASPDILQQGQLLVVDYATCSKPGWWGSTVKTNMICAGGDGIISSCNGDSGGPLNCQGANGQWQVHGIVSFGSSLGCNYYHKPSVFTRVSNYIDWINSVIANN
As to the kind of experiment: Compound was evaluated for inhibitory activity against porcine pancreatic elastase.

Experiment [3] has as its target T1, Chymotrypsin-like elastase family member 2A (Sus scrofa). Briefly: Compound was evaluated for inhibitory activity against porcine pancreatic elastase; No inactivation.
In experiment [4] the target is Chymotrypsinogen A (Bos taurus) (UniProt P00766). As to the kind of experiment: Compound was evaluated for its inhibitory activity against alpha- chymotrypsin.

In experiment [1], `CC(=O)C(Cc1ccccc1)OS(C)(=O)=O` (configuration not stated) registered an I of 2.31 mM and a K obs / 1 of 0.33 M⁻¹ s⁻¹.
In experiment [2], `CC(=O)C(C)OS(=O)(=O)c1ccccc1` (configuration not stated) displayed an I of 2.01 mM and a K obs / 1 of 0.19 M⁻¹ s⁻¹. In experiment [1], this molecule yielded an I of 3.28 mM and a K obs / 1 of 0.01 M⁻¹ s⁻¹.
Regarding `CC(=O)C(Cc1ccccc1)OS(=O)(=O)c1ccc(C)cc1` (configuration not stated), the I in experiment [2] came to 0.103 mM; in experiment [1], 0.096 mM. Also, the “K obs / 1” value in experiment [3] was “No inhibition”; in experiment [1] it was 10.5 M⁻¹ s⁻¹.
Consider `Cc1ccc(S(=O)(=O)N[C@@H](Cc2ccccc2)C(=O)CCl)cc1`, for which the K obs / 1 in experiment [4] was found to be 7.7 M⁻¹ s⁻¹. This molecule also returned an I in experiment [1] of 0.057 mM.

The values above are taken from ChEMBL document CHEMBL1153255, “Studies on irreversible inhibition of serine proteases by -sulfonyloxyketone derivatives” (Bioorg Med Chem Lett, 1996).
